Experimental data reported in patent US12304938B2, “Processes and intermediates for preparing tirzepatide” (Eli Lilly and Company, priority 2022, dated 2025).
Peptide text beside a SMILES is read from it. * marks the point of attachment. Fmoc = O=C(OCC1c2ccccc2-c2ccccc21)*; tBu = CC(C)(C)*

Experiment: Physical stability of solid form on isolation/drying (crystallization screen)
Type: physicochemical
Conditions: wet solids from 1:1 v/v ACN/MTBE slurry, upon isolation/drying
Experimental: A crystallization screen was performed on Fmoc-G-P-S(tBu)-S(tBu)-G-OH (SEQ ID NO: 19) free form using various solvents and solvent mixtures. Different crystallization methods were employed including solvent-based techniques such as slurry, cooling, ambient and sub-ambient temperatures holding, solvent/anti-solvent addition, or combination of techniques, and non-solvent-based techniques such as heat stress.
Three solid forms were identified: Fmoc-G-P-S(tBu)-S(tBu)-G-OH (SEQ ID NO: 19) Form A, Fmoc-G-P-S(tBu)-S(tBu)-G-OH (SEQ ID NO: 19) Form C, and Fmoc-G-P-S(tBu)-S(tBu)-G-OH (SEQ ID NO: 19) Form D. Form A was a solvated form produced from 1-propanol (1-PrOH) or mixtures containing 1-PrOH (such as 1-PrOH/heptane). Form D is a solvated form produced from acetonitrile (ACN) or mixtures containing ACN (such as ACN/MTBE). Form C is a conversion product when Form D is isolated and dried.
The suspension was seeded with Fmoc-G-P-S(tBu)-S(tBu)-G-OH (SEQ ID NO: 19) Form C and then left at ambient conditions to continue stirring for 2 days.

## CC(C)(C)OC[C@H](NC(=O)[C@H](COC(C)(C)C)NC(=O)[C@@H]1CCCN1C(=O)CNC(=O)OCC1c2ccccc2-c2ccccc21)C(=O)NCC(=O)O [Fmoc-Gly-Pro-Ser(tBu)-Ser(tBu)-Gly-OH] (Fmoc-GPS(tBu)S(tBu)G-OH)
  physical stability of solid form: physically not stable
